# How the values were obtained:
# [1] = test system: Beet Armyworm, Spodoptera exigua; assay: Synergy test on treated artificial diet, beet armyworm; assay type: in vivo
# Protocol: (§1) Synergy tests were performed by treating artificial diet in 96-well plates and feeding treated diet to neonate larvae. 100 μL of treatment were pipetted into multiple wells of each plate. […] The diet was fan-dried to remove excess moisture. Neonate Beet Armyworm, Spodoptera exigua, or Cabbage Loopers, Trichoplusia ni, were transferred into each well of the multi-well plate. Infested plates were covered with adhesive plate sealer and a single small hole was poked into the sealer over each well to allow for aeration. Plates were stored in an incubator at 26° C., 16 h light/8 h dark cycle for […]. On the third and fourth day after infesting, mortality was scored.
# (§2) The determination of a synergistic, antagonistic, or additive interaction was determined using the methods from (Colby 1967). Due to variation in bioassays, it was determined that ratios between 0 and 0.9 would be considered antagonistic, 0.9-1.1 ratios would be additive, and ratios above 1.1 would be considered synergistic relationships.
# MBI-203 synergy with insecticides against Beet Army Worm (BAW) was tested. Chlorantranilipole (marketed as Coragen®, Dupont), Bacillus thuringiensis var. kurstaki (Dipel®, Valent Biosciences), Spinosad (marketed as Entrust®, Dow Agro Sciences), Spirotetramet (marketed as Movento®, Bayer Crop Science) and Pyrethrum/pyrethrins (marketed as Pyganic®, Arbico Organics) were tested with MBI-203. As noted above, except where indicated, LC50 concentrations of MBI-203 and insecticides were used. […] Pyrethrum combinations with MBI-203 were antagonistic.
# [2] = test system: Cabbage Loopers, Trichoplusia ni; assay: Synergy test on treated artificial diet, cabbage loopers; assay type: in vivo
# Protocol: as §1, §2
# MBI-203 synergy with insecticides against Cabbage Loopers was tested. Chlorantranilipole (marketed as Coragen®, Dupont), Bacillus thuringiensis var. kurstaki (Dipel®, Valent Biosciences), Spinosad (marketed as Entrust®, Dow Agro Sciences), Spirotetramet (marketed as Movento®, Bayer Crop Science) and Pyrethrum/pyrethrins (marketed as Pyganic®, Arbico Organics) were tested with MBI-203. As noted above, except where indicated, LC50 concentrations of MBI-203 and insecticides were used.
# [3] = test system: root knot nematode Meloidogyne sp.; assay: Mini drench test, root galling of cucumber (Zeck's gall index); assay type: in vivo, Meloidogyne incognita; settings: 20 ppm
# Protocol: MBI-203 was tested for its intrinsic activity against the root knot nematode Meloidogyne sp. in two mini drench tests.
# Specifically MBI-203 was tested in a greenhouse assay conducted in 45 ml pots. Cucumber seeds cv. Toshka were sown directly into pots filled with a sandy loam soil. Ten days later pots were each treated with 5 ml of a suspension. Hereafter, pots were inoculated with 3000 eggs of M. incognita. Four replicates were prepared for each treatment and rate. The trial was harvested fourteen days after trial application and inoculation. Root galling was assessed according to Zeck's gall index (Zeck, 1971). Specific conditions are set forth below in Table 3.
# [4] = test system: Cabbage looper (Trichoplusia ni) or Beet armyworm (Spodoptera exigua); assay: Screening of fractions and pure compounds in feeding assay; assay type: in vivo; settings: HPLC-purified compounds
# Protocol: The culture broth derived from the 10-L fermentation C. substugae in L-broth is extracted with Amberlite XAD-7 resin (Asolkar et al., 2006) by shaking the cell suspension with resin at 225 rpm for two hours at room temperature. The resin and cell mass are collected by filtration through cheesecloth and washed with DI water to remove salts. The resin, cell mass, and cheesecloth are then soaked for 2 h in acetone/methanol (50/50) after which the acetone/methanol is filtered and dried under vacuum using rotary evaporator to give the crude extract. The crude extract is then fractionated by using Sephadex LH 20 size exclusion chromatography (CH2Cl2/CH3OH; 50/50) to give 7 fractions (FIG. 1). These fractions are then concentrated to dryness using rotary evaporator and the resulting dry residues are screened for biological activity using a feeding assay with Cabbage looper (Trichoplusia ni) or Beet armyworm (Spodoptera exigua). The active fractions are then subjected to reversed phase HPLC (Spectra System P4000 (Thermo Scientific) to give pure compounds, which are then screened in above mentioned bioassays to locate/identify the active compounds. To confirm the identity of the compound, additional spectroscopic data such as LC/MS and NMR is recorded.
# [5] = test system: Cabbage Looper (Trichoplusia ni); assay: whole plant or invertebrate; assay type: in vivo
# Protocol: Toxicity of the compound of interest in fraction 1 (F1) was confirmed in an in vitro assay using 1st instar cabbage looper larvae as a test object.
# Two hundred microliters of commercial cabbage looper diet was distributed in each well of a 96-well microplate. After the diet had solidified, 100 uL of solution containing 50 uL of extract (corresponding to four individual peaks found in fraction 1; H1-H4), 350 uL EtOH and 600 uL sterile DI water was pipetted in each well, after which the plate was dried using a hand-held fan. The amount of extract in each well was 10 micrograms. Each treatment was replicated eight times, and a mixture of pure ethanol and water was used as a negative control.
# One test insect (1st instar larvae of cabbage looper) was placed in each well, and the plate was covered with an adhesive seal. The seal was punctured for aeration, and the sealed plate was incubated at 26° C. for four days.
# The 96-well plate assay system described in the previous example was used to determine the concentration of pure violacein needed to kill 50% of the 1st instar cabbage looper larvae. Based on the data, violacein is a potent insecticide with an estimated LC50 value of 7*10^−6 micrograms per well for cabbage looper larvae in an in vitro diet-overlay assay.
# [6] = Trichoplusia ni, 96 h, read-out: % mortality Day 4
compound,measurement,setting,value
Spinosad,Product alone Kill %,[1]; LC50 concentration,68.7%
same,Product alone Kill %,[2]; LC50 concentration,54.3%
CCOP(=O)(SC(C)CC)N1CCSC1=O (stereo not shown) [Fosthiazate],control,[3]; Mini drench test no. 1,100%
same,control,[3]; Mini drench test no. 2,100%
"O=C1NC(c2c[nH]c3ccc(O)cc23)=C/C1=C1\C(=O)Nc2ccccc21 (single isomer, unassigned) [Violacein, violacein]",activity in feeding bioassay (active compound),[4],active
same,mortality at 1e-06 µg/disc,[5]; [6],14.2%
same,mortality at 1e-05 µg/disc,[5]; [6],71.4%
same,mortality at 0.0001 µg/disc,[5]; [6],100%
same,mortality at 0.001 µg/disc,[5]; [6],100%
same,mortality at 0.01 µg/disc,[5]; [6],100%
same,mortality at 0.1 µg/disc,[5]; [6],100%
same,mortality at 1 µg/disc,[5]; [6],100%
same,mortality at 10 µg/disc,[5]; [6],100%
same,estimated LC50,[5]; in vivo,7*10^−6 micrograms per well
CCOC(=O)OC1=C(c2cc(C)ccc2C)C(=O)N[C@]12CC[C@@H](OC)CC2 [Spirotetramet],Product alone Kill %,[1]; Spirotetramet 0.53X LC50,42.9%
same,Product alone Kill %,[1]; Spirotetramet 1.4X LC50,77.5%
same,Product alone Kill %,[2]; LC50 concentration,23.8%
same,Product alone Kill %,[2]; Spirotetramet 0.5X LC50,41.5%
CNC(=O)c1cc(Cl)cc(C)c1NC(=O)c1cc(Br)nn1-c1ncccc1Cl [Chlorantranilipole],Product alone Kill %,[1]; LC50 concentration,9.1%
same,Product alone Kill %,[2]; LC50 concentration,3%
"O=C1NC(c2c[nH]c3ccccc23)=C/C1=C1\C(=O)Nc2ccccc21 [deoxyviolacein (3), deoxyviolacein]",activity in feeding bioassay (active compound),[4],active
chromamide A,activity in feeding bioassay (active compound),[4],active

# Source: patent US8715754B2, “Chromobacterium bioactive compositions and metabolites” (Marrone Bio Innovations, Inc., priority 2010, dated 2014)
